Turning to `CC(F)(F)c1ccc2c(c1)C=C(C(=O)O)C(C(F)(F)F)O2` (centres unmarked) [Example 34d, 6-(1,1-difluoroethyl)-2-(trifluoromethyl)-2H-chromene-3-carboxylic acid], the melting point was 156 to 158 °C (dec.).
For `O=C(O)C1=Cc2c(ccc(Cl)c2-c2ccco2)OC1C(F)(F)F` (centres unmarked) [Example 867, 6-Chloro-5-(2-furyl)-2-(trifluoromethyl)-2H-chromene-3-carboxylic acid] the value was 191 to 193 °C; for `O=C(O)C1=Cc2c(ccc(Cl)c2-c2ccccc2)OC1C(F)(F)F` (centres unmarked) [Example 872, 6-Chloro-5-phenyl-2-(trifluoromethyl)-2H-chromene-3-carboxylic acid], 229 to 231 °C; for `O=C(O)C1=Cc2cc3occ(-c4ccc(Br)cc4)c3cc2OC1C(F)(F)F` (centres unmarked) [Example 921, 3-(4-bromophenyl)-6-(trifluoromethyl)-6H-furo[2,3-g]chromene-7-carboxylic acid], more than 250 °C.
For `CCc1ccc(Oc2cc3c(cc2Cl)C=C(C(=O)O)[C@H](C(F)(F)F)O3)cc1` (single isomer, unassigned) [Example 931] the value was 130 to 131 °C.
For `Cc1ccc(-c2c(Cl)ccc3c2C=C(C(=O)O)C(C(F)(F)F)O3)cc1` (centres unmarked) [Example 869, 6-Chloro-5-(4-methylphenyl)-2-(trifluoromethyl)-2H-chromene-3-carboxylic acid] the value was 218 to 220 °C; for `CCCc1ccc(Oc2ccc3c(c2)OC(C(F)(F)F)C(C(=O)O)=C3)cc1` (centres unmarked) [Example 713, 7-(4-Propylphenoxy)-2-(trifluoromethyl)-2H-chromene-3-carboxylic acid], 143.5 to 146.5 °C; for `CCc1cnc(Oc2cc3c(cc2Cl)C=C(C(=O)O)C(C(F)(F)F)O3)nc1` (centres unmarked) [Example 864, 6-Chloro-7-[(5-ethylpyrimidin-2-yl)oxy]-2-(trifluoromethyl)-2H-chromene-3-carboxylic acid], 96.5 to 98 °C.
`Cc1cccc(-c2c(Cl)ccc3c2C=C(C(=O)O)C(C(F)(F)F)O3)c1` (centres unmarked) [Example 870, 6-Chloro-5-(3-methylphenyl)-2-(trifluoromethyl)-2H-chromene-3-carboxylic acid] had a melting point of 222.5 to 224 °C.
For `O=C(O)C1=Cc2c(ccc3occ(-c4ccc(Br)cc4)c23)OC1C(F)(F)F` (centres unmarked) [Example 922, 1-Para-bromophenyl-7-(trifluoromethyl)-7H-furo[3,2-f]chromene-8-carboxylic acid] the value was more than 250 °C; for `CCc1ccc(Oc2cc3c(cc2Cl)C=C(C(=O)O)[C@@H](C(F)(F)F)O3)cc1` (single isomer, unassigned) [Example 939], 90 to 95 °C.

As a reminder, the melting point is the temperature, or range, at which the solid turns liquid.

Source of the values: patent publication US20050148627A1, “Benzopyran compounds for use in the treatment and prevention of inflammation related conditions” (priority 2003, published 2005).
